Test results as given in patent US20220187282A1, “CARDIOMYOCYTE PROLIFERATION” (The Council of the Queensland Institute of Medical Research, priority 2019, published 2022).
Read-outs that look alike come from different tables or passages of the source.

What was measured:
Assay type in all cases: biochemical
kinases [1] = target: kinases (Homo sapiens, UniProt O00311); conditions: CDC7/DBF4 FRET-Lantha SP; Test Conc(μM) 1
kinases [2] = target: kinases (Homo sapiens, UniProt O14976); conditions: GAK FRET-Lantha SP; Test Conc(μM) 1
kinases [3] = target: kinases (Homo sapiens, UniProt O43353); conditions: RIPK2 FRET-Lantha SP; Test Conc(μM) 1
kinases [4] = target: kinases (Homo sapiens, UniProt O75716); conditions: STK16 (PKL12) FRET-Lantha SP; Test Conc(μM) 1
kinases [5] = target: kinases (Homo sapiens, UniProt O94806); conditions: PRKCN (PKD3) FRET-Z-Lyte SP; Test Conc(μM):ATP Conc(μM) 1:25
kinases [6] = target: kinases (Homo sapiens, UniProt O95835); conditions: LATS1 FRET-Lantha SP; Test Conc(μM) 1
kinases [7] = target: kinases (Homo sapiens, UniProt P00519); conditions: ABL1 Hu Phos FRET-Z-Lyte SP; Test Conc(μM):ATP Conc(μM) 1:10
kinases [8] = target: kinases (Homo sapiens, UniProt P07332); conditions: FES (FPS) FRET-Z-Lyte SP; Test Conc(μM):ATP Conc(μM) 1:25
kinases [9] = target: kinases (Homo sapiens, UniProt P23443); conditions: RPS6KB1 (p70S6K) Z-Lyte SP; Test Conc(μM):ATP Conc(μM) 1:10
kinases [10] = target: kinases (Homo sapiens, UniProt P29376); conditions: LTK (TYK1) FRET-Z-Lyte SP; Test Conc(μM):ATP Conc(μM) 1:75
kinases [11] = target: kinases (Homo sapiens, UniProt P42338)
kinases [12] = target: kinases (Homo sapiens, UniProt P48730); conditions: CSNK1D (CK1 delta) Z-Lyte SP; Test Conc(μM):ATP Conc(μM) 1:5
kinases [13] = target: kinases (Homo sapiens, UniProt P50613); conditions: CDK7/cyclin H/MNAT1 Adapta SP; Test Conc(μM):ATP Conc(μM) 1:150
kinases [14] = target: kinases (Homo sapiens, UniProt P51617); conditions: IRAK1 FRET-Adapta SP; Test Conc(μM):ATP Conc(μM) 1:25
kinases [15] = target: kinases (Homo sapiens, UniProt P52333); conditions: JAK3 FRET-Z-Lyte SP; Test Conc(μM):ATP Conc(μM) 1:10
kinases [16] = target: kinases (Homo sapiens, UniProt P54760); conditions: EPHB4 FRET-Z-Lyte SP; Test Conc(μM):ATP Conc(μM) 1:100
kinases [17] = target: kinases (Homo sapiens, UniProt Q13882); conditions: PTK6 (Brk) *Mn* FRET-Z-Lyte SP; Test Conc(μM):ATP Conc(μM) 1:75
kinases [18] = target: kinases (Homo sapiens, UniProt Q14012); conditions: CAMK1 (CaMK1) FRET-Adapta SP; Test Conc(μM):ATP Conc(μM) 1:10
kinases [19] = target: kinases (Homo sapiens, UniProt Q16513); conditions: PKN2 (PRK2) FRET-lantha SP; Test Conc(μM) 1
kinases [20] = target: kinases (Homo sapiens, UniProt Q2M2I8); conditions: AAK1 FRET-Lantha SP; Test Conc(μM) 1
kinases [21] = target: kinases (Homo sapiens, UniProt Q86UX6); conditions: STK32C (YANK3) FRET-Lantha SP; Test Conc(μM) 1
kinases [22] = target: kinases (Homo sapiens, UniProt Q86V86); conditions: PIM3 FRET-Z-Lyte SP; Test Conc(μM):ATP Conc(μM) 1:1000
kinases [23] = target: kinases (Homo sapiens, UniProt Q8N568); conditions: DCAMKL2 (DCK2) FRET-Z-Lyte SP; Test Conc(μM):ATP Conc(μM) 1:150
kinases [24] = target: kinases (Homo sapiens, UniProt Q8TD19); conditions: NEK9 *Mn* FRET-Z-Lyte SP; Test Conc(μM):ATP Conc(μM) 1:100
kinases [25] = target: kinases (Homo sapiens, UniProt Q96SB4); conditions: SRPK1 FRET-Z-Lyte SP; Test Conc(μM):ATP Conc(μM) 1:25
kinases [26] = target: kinases (Homo sapiens, UniProt Q9H422); conditions: HIPK3 (YAK1) FRET-Z-Lyte SP; Test Conc(μM):ATP Conc(μM) 1:25
kinases [27] = target: kinases (Homo sapiens, UniProt Q9HBY8); conditions: SGK2 FRET-Z-Lyte SP; Test Conc(μM):ATP Conc(μM) 1:50
kinases [28] = target: kinases (Homo sapiens, UniProt Q9UM73); conditions: ALK FRET-Z-Lyte SP; Test Conc(μM):ATP Conc(μM) 1:25
[29] = PIK3CB FRET-Adapta SP, Test Conc(μM):ATP Conc(μM) 1:150
[30] = PIK3CB/PIK3R2 FRET-Adapta SP, Test Conc(μM):ATP Conc(μM) 1:10

Sequence of kinases (Homo sapiens, UniProt P42338) (P42338 whole entry): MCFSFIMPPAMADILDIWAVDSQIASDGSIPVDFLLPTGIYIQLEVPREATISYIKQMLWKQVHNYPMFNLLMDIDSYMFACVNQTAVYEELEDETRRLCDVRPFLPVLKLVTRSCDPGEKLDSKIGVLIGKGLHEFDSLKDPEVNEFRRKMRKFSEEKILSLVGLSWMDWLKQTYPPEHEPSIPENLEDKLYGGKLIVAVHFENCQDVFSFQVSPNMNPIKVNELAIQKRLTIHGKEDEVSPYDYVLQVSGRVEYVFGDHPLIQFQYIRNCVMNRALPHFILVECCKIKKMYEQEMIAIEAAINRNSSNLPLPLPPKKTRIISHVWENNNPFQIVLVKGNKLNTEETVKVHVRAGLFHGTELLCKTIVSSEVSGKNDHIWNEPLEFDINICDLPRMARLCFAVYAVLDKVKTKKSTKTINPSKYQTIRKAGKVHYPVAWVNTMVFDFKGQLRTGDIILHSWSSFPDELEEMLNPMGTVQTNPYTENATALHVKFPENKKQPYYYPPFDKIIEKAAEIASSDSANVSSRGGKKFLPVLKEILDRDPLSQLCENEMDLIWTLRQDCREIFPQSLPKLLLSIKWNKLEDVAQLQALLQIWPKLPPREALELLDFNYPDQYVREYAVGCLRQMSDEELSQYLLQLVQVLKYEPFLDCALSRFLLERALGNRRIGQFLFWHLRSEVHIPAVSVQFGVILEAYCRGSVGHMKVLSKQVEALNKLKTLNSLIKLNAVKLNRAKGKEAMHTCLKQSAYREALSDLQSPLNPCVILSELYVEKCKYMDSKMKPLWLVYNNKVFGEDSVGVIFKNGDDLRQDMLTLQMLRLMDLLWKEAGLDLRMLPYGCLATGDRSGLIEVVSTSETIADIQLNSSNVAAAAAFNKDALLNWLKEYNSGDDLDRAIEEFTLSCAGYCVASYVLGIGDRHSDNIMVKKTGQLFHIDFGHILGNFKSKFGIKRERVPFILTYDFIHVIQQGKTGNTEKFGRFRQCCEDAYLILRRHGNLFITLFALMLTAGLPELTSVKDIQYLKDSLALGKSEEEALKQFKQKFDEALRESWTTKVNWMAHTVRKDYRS
Sequence of kinases (Homo sapiens, UniProt O94806) (O94806 whole entry): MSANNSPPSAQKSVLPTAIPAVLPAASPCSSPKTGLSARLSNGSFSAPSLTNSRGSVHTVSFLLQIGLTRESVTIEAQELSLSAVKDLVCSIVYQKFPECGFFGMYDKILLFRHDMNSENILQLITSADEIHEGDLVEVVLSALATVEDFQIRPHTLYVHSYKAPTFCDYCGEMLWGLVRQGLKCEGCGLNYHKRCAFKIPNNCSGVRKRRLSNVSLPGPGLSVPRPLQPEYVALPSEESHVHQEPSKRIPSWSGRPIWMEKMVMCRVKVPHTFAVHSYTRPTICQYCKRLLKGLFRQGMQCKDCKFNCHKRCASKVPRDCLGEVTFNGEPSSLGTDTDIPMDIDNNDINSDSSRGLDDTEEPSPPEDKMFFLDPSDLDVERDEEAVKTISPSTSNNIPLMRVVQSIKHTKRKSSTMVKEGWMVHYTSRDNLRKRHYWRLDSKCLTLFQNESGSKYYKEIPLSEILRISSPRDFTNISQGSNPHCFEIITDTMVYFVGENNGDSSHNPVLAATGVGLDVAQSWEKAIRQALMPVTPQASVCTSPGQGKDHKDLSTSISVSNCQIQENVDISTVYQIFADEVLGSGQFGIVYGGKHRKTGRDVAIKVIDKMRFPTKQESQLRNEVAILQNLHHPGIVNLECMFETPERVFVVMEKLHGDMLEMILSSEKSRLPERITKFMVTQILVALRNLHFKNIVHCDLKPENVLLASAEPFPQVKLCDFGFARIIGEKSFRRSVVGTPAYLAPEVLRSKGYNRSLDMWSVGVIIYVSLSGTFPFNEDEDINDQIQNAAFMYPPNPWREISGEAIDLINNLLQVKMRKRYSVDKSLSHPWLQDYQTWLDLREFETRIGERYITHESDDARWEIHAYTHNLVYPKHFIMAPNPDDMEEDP
Sequence of kinases (Homo sapiens, UniProt P07332) (P07332 whole entry): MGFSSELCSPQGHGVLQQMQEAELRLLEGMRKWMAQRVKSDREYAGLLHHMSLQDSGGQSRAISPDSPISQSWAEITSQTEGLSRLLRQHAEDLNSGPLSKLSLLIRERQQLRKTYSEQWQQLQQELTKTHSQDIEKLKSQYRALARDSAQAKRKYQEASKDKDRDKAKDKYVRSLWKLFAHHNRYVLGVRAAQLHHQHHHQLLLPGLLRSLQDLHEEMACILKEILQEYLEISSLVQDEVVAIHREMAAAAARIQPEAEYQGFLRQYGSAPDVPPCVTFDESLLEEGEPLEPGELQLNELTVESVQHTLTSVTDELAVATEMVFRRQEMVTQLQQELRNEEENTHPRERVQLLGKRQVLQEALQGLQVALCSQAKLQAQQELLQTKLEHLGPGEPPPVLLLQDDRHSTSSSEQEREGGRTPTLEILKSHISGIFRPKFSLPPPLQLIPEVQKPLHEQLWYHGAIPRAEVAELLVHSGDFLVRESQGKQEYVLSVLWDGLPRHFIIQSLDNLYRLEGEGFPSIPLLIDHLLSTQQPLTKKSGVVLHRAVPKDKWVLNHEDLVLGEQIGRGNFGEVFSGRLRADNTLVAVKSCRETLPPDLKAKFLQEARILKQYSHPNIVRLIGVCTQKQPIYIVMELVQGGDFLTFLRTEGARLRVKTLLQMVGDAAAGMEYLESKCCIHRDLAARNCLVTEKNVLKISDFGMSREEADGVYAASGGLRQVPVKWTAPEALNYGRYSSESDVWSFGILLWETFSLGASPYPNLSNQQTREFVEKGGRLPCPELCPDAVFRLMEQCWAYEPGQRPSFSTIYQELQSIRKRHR
Sequence of kinases (Homo sapiens, UniProt P23443) (P23443 whole entry): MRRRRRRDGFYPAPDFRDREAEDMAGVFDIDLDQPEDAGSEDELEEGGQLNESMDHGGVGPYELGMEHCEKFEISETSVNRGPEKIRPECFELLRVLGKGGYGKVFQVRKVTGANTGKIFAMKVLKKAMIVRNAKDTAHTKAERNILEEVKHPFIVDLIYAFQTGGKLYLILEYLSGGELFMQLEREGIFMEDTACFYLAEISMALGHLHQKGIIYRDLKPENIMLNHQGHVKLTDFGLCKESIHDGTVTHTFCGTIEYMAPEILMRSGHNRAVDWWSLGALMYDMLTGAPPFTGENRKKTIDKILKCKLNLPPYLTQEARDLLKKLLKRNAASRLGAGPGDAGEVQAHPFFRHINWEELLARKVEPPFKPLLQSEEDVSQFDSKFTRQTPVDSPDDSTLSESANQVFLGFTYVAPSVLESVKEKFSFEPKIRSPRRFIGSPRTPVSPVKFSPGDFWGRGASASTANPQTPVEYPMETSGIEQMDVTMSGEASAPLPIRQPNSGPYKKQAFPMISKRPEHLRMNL
Sequence of kinases (Homo sapiens, UniProt Q86UX6) (Q86UX6 whole entry): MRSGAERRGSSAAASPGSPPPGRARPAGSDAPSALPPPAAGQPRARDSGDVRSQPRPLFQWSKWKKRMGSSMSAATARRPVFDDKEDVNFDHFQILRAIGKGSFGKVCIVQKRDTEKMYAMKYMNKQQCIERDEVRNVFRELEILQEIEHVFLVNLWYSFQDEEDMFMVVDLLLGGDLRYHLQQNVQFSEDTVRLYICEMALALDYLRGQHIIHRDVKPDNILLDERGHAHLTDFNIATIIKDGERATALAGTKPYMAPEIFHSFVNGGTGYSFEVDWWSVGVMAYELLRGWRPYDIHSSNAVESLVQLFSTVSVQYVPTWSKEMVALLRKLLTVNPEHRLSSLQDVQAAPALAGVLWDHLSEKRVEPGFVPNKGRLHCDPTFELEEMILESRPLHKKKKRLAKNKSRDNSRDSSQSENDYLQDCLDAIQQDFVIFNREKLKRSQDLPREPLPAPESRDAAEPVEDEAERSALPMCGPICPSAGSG
Sequence of kinases (Homo sapiens, UniProt O14976) (O14976 whole entry): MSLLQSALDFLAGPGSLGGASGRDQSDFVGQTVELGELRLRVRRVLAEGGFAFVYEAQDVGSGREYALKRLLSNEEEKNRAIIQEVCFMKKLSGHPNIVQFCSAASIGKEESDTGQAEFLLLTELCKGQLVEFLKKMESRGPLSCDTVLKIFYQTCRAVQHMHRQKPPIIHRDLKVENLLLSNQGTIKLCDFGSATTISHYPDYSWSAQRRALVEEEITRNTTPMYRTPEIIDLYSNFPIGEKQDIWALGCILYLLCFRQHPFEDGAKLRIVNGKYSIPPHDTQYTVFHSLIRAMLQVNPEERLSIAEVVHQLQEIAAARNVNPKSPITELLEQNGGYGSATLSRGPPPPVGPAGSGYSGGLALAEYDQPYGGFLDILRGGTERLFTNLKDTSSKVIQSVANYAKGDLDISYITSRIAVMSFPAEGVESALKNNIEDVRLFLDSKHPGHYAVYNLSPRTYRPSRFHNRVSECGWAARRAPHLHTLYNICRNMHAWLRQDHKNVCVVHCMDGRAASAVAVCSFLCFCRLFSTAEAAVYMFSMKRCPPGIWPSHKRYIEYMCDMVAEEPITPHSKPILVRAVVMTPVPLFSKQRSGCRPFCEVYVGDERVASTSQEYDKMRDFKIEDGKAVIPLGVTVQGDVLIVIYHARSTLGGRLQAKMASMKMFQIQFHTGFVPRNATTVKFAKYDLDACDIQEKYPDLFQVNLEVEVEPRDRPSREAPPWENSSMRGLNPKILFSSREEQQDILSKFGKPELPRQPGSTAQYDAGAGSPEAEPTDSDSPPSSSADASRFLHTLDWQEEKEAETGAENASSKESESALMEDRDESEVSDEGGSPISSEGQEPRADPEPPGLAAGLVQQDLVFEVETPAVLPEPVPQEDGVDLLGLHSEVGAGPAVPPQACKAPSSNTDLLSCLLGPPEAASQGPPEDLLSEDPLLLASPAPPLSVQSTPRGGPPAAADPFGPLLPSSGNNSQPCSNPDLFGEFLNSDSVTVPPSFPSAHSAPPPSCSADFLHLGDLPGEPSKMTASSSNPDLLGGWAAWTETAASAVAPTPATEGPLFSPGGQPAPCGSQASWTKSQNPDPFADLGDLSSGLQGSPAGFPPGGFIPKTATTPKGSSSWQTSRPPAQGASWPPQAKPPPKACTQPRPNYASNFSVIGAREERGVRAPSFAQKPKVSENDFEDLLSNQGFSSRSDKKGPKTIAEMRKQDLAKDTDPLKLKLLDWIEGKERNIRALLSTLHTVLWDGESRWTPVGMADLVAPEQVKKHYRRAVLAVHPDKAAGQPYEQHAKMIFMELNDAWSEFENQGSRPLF

Cc1ccc(NC(=O)c2ccnc(N3CCOCC3)c2)cc1Nc1ccnc(N2CC(C)OC(C)C2)n1 (stereo not shown) [compound 3]
Mean Inhib (%) (kinases [1]): 4.9% | Mean Inhib (%) (kinases [2]): 29.0% | Mean Inhib (%) (kinases [3]): 13.0% | Mean Inhib (%) (kinases [4]): −1.7% | Mean Inhib (%) (kinases [5]): 9.0% | Mean Inhib (%) (kinases [6]): 19.8% | Mean Inhib (%) (kinases [7]): 2.8% | Mean Inhib (%) (kinases [8]): 10.0% | Mean Inhib (%) (kinases [9]): 4.7% | Mean Inhib (%) (kinases [10]): −6.4% | Mean Inhib (%) (kinases [11]; [29]): −5.2% | Mean Inhib (%) (kinases [11]; [30]): 8.0% | Mean Inhib (%) (kinases [12]): 1.2% | Mean Inhib (%) (kinases [13]): −2.3% | Mean Inhib (%) (kinases [14]): 11.2% | Mean Inhib (%) (kinases [15]): 7.2% | Mean Inhib (%) (kinases [16]): 1.4% | Mean Inhib (%) (kinases [17]): 3.5% | Mean Inhib (%) (kinases [18]): −9.9% | Mean Inhib (%) (kinases [19]): −2.6% | Mean Inhib (%) (kinases [20]): 5.8% | Mean Inhib (%) (kinases [21]): −1.0% | Mean Inhib (%) (kinases [22]): −1.4% | Mean Inhib (%) (kinases [23]): 5.5% | Mean Inhib (%) (kinases [24]): 1.8% | Mean Inhib (%) (kinases [25]): 7.6% | Mean Inhib (%) (kinases [26]): 0.6% | Mean Inhib (%) (kinases [27]): 1.2% | Mean Inhib (%) (kinases [28]): 11.9%

Cc1cc(Oc2ccnc(Nc3ccc(S(N)(=O)=O)cc3)c2)c(-c2ccccn2)nc1C [compound 65]
Mean Inhib (%) (kinases [1]): 0.9% | Mean Inhib (%) (kinases [2]): 39.3% | Mean Inhib (%) (kinases [3]): 64.0% | Mean Inhib (%) (kinases [4]): 3.4% | Mean Inhib (%) (kinases [5]): 12.4% | Mean Inhib (%) (kinases [6]): 17.2% | Mean Inhib (%) (kinases [7]): 85.2% | Mean Inhib (%) (kinases [8]): 6.3% | Mean Inhib (%) (kinases [9]): 1.0% | Mean Inhib (%) (kinases [10]): −3.9% | Mean Inhib (%) (kinases [11]; [29]): −2.3% | Mean Inhib (%) (kinases [11]; [30]): −4.7% | Mean Inhib (%) (kinases [12]): 1.9% | Mean Inhib (%) (kinases [13]): −2.2% | Mean Inhib (%) (kinases [14]): 5.1% | Mean Inhib (%) (kinases [15]): −7.8% | Mean Inhib (%) (kinases [16]): 58.1% | Mean Inhib (%) (kinases [17]): 32.3% | Mean Inhib (%) (kinases [18]): 7.3% | Mean Inhib (%) (kinases [19]): 5.1% | Mean Inhib (%) (kinases [20]): 2.4% | Mean Inhib (%) (kinases [21]): 7.8% | Mean Inhib (%) (kinases [22]): −2.6% | Mean Inhib (%) (kinases [23]): 4.9% | Mean Inhib (%) (kinases [24]): −4.1% | Mean Inhib (%) (kinases [25]): 2.9% | Mean Inhib (%) (kinases [26]): −0.3% | Mean Inhib (%) (kinases [27]): −1.3% | Mean Inhib (%) (kinases [28]): 4.2%
